Columns and labels:
Assay type in all cases: cell-based
[1] = test system: HL60 cells; experiment: XTT cell proliferation assay, HL60 cells
Experimental: MV4-11 or HL-60 cells were seeded into a clear-bottom 96-well plate containing varying concentrations of inhibitors in the optimal growth media described above and the mixtures were incubated for 16 h. Cells were then treated with a mixture of XTT-labeling reagents and the electron coupling reagents according to the manufacturer's protocol (Roche). After 4 h, the absorbance values at 475 nm and at 660 nm were simultaneously measured by Synergy™ Neo spectrofluorometer at 25° C. Cells with the growth media was used for background correction.

[2] = test system: patient AML cells; experiment: Colony growth assay of patient-derived AML cells; details: primary AML cells from 4 patients
Experimental: (§1) Primary samples were obtained from an existing HEMBANK at UIC under an IRB approved research protocol (protocol #2021-0723). Cells were processed and treated with inhibitors as reported previously^75. For primary AML samples, mononuclear cells isolated by Ficoll density centrifugation were utilized. mononuclear cells were treated in culture at a density of 0.5×10^6/ml in StemSpan with CD34 expansion supplement (Stemcell Technologies) for 24 h and then harvested for immunoblotting assays. In parallel 2×10^4 cells were plated in triplicate for each treatment condition in Methoccult H4434 (Stem Cell Technologies) in the presence of drug. At days 12-14, colonies were manually enumerated under light microscopy and normalized to DMSO control for each individual sample due to interpatient variability in colony forming activity. Normalized colony forming units for pooled treated and untreated samples (n=4) were compared using unpaired 2-tailed t test. p<0.05 was considered statistically significant.

[3] = molecular target: T1, Syk (Homo sapiens, UniProt P43405); experiment: Streptavidin pull down assay with WC36B in MV4-11 cells; details: WC36B-streptavidin pull down
T1 construct: host or cells: MV4-11 AML cells (naive and entospletinib-resistant)
Experimental: Streptavidin-coated beads (Dynabeads™ M280 streptavidin beads; ThermoFisher) were washed twice with 1 ml of PBST (PBS+0.1% Tween 20) and resuspended in 100 μl of PBST. WC36B (or biotin) (10 mM) was added to 100 μl of the bead suspension and the mixture was incubated at room temperature for 15 min with gentle shaking. The mixture was then vortexed for 5 s and the tube was placed on a magnet for 1 min. After discarding the supernatant, the beads were resuspended in the same volume of the washing buffer. Washing is repeated three times to remove excess WC36B. WC36B-coated beads were then incubated with the cell lysate (MV-4-11) for 30 min at room temperature with gentle shaking. Protein-coated beads were separated with a magnet for 2-3 min and washed 4-5 times with PBS containing 0.1% BSA. The protein was then removed from the beads by boiling the beads in the SDS-polyacrylamide gel electrophoresis (PAGE) application buffer. Samples were concentrated for the mass spectrometry analysis and the western blot assay.

[4] = test system: Raji B cells; experiment: Cell viability assay (CellTiter-Glo), Raji cells; details: 0.5-5 μM
Experimental: All cell viability assays were conducted in a white, flat-bottom, 96-well tissue culture plate (Corning). The Raji cells were seeded at a density of 3.0×10^5 cells/well 24 h prior to the incubation with the inhibitor. Varying concentrations of WC36 (or DMSO) was then added to each well and the plates were incubated at 37° C. and at 5% CO2 for 72 h. Cell viability was quantified with the CellTiter-Glo reagent. Growth media were removed by aspiration and replaced with 100 μl fresh media and 100 μl CellTiter-Glo reagent. The plates were then gently shaken for 2 min and incubated at 25 C.° for additional 8 min. The luminescence was measured using Synergy™ Neo spectrofluorometer at 25 C.°. The luminescence value at each WC36 concentration was normalized against that without WC36. DMSO with the same volume as the WC36 solution was used as negative controls.

[5] = test system: Syk activation; experiment: Immunoblotting of patient-derived primary AML cells; details: primary AML cells from 4 patients refractory or relapsed
Experimental: as §1

[N-]=[N+]=C(C(=O)OC1CCCCC1)C(Nc1ncccn1)c1c[nH]c2ccccc12 (racemic) [WC36, Cyclohexyl 2-diazo-3-(1H-indol-3-yl)-3-(pyrimidin-2-ylamino)propanoate]
inhibition of proliferation (XTT assay) [1]: potently suppressed the proliferation of HL60 cells | suppression of colony forming activity [2]: statistically significant suppression of colony forming activity | competition with WC36B for Syk binding [3]: able to compete with WC36B for Syk binding | effect on cell viability [4]: minimal effect on cell viability | inhibition of Syk activation [5]: significant inhibition of Syk activation
